Source: patent US4119722A, “Method for control of fungi using 4-halo-5-aryl-1,2,3,-dithiazoles” (Chevron Research Company, priority 1977, dated 1978)

Tests used:
[1] = test system: Alternaria solani; assay: Tomato Early Blight control; type: in vivo; conditions: 250-ppm spray, tomato seedlings, inoculated 1 day later
Description: Compounds of the invention were tested for the control of the Tomato Early Blight organism, Alternaria solani conidia. […] The tomato plans were sprayed with a 250-ppm solution of the test compound in an acetone-and-water solution containing a small amount of a non-ionic emulsifier. […] Percent disease control was based on the percent disease development on untreated check plants.

[2] = test system: Botrytis cinerea; assay: Mycelia Inhibition; type: cell-based; conditions: 25° C., 24 hours
Description: (§1) The compounds of the present invention were evaluated for fungicidal effectiveness by means of a mycelial inhibition test. This test is designed to measure the fungitoxic acitvity of fungicidal chemicals in terms of their degree of inhibition of mycelium growth. Each compound to be tested was dissolved in acetone to 500 ppm concentration. Paper strips were innoculated with the particular mycelium growth by covering the paper with a potato dextrose broth culture of mycelial suspension. The innoculated papers were then placed on potato dextrose agar plates and sprayed by means of a micro sprayer with the fungicidal solution. The treated paper strips were incubated at 25° C. and data is taken after 24 hours. Fungicidal activities are measured by a zone of inhibited mycelial growth from the center of the paper strip. The effectiveness of the compounds tested for fungicidal activity is reported in Table VI in terms of the microgram/cm^2 for 99% control of the fungus.

[3] = test system: Aspergillus niger; assay: Mycelia Inhibition; type: cell-based; conditions: 25° C., 24 hours
Description: as §1

[4] = test system: Rhizoctonia solani; assay: Mycelia Inhibition; type: cell-based; conditions: 25° C., 24 hours
Description: as §1

[5] = test system: Fusarium moniloforma; assay: Mycelia Inhibition; type: cell-based; conditions: 25° C., 24 hours
Description: as §1

[6] = test system: mite eggs (Tetramuchus urticae); assay: Mite control test, mite eggs; type: in vivo; conditions: 40-ppm leaf dip, egg mortality (non-hatching eggs) 7 days after treatment
Description: (§2) Compounds of the invention were tested for the control mites and mite eggs by the following procedure. Pinto bean leaves were invested with two spotted-mites (Tetramuchus urticae). The mites were then allowed to lay eggs on the leaves. After 48 hours, the leaves were dipped into a water/acetone solution containing a small amount of a non-ionic surfactant and 40-ppm of the test compound. The treated leaves were then maintained at 85° F. One day after treatment, the mortality of adult mites was determined, and 7 days after treatment, the egg mortality (non-hatching eggs) was determined.

[7] = test system: two spotted-mites (Tetramuchus urticae); assay: Mite control test, adult mites; type: in vivo; conditions: 40-ppm leaf dip, adult mortality one day after treatment; 1440 min
Description: as §2

[8] = test system: Phytophthora infestans; assay: whole plant or invertebrate; type: in vivo; conditions: in Solanum lycopersicum, 168 h, read-out: Tomato Late Blight, % Control
[9] = test system: Pigweed (Amaranthus retroflexus); assay: Post-emergent herbicidal test; type: in vivo; conditions: post-emergence, 504 h, 33 mcg/cm^2, 3 weeks, scale 0 (no phytotoxicity) to 100 (complete kill), read-out: Herbicidal Effectiveness
Description: (§3) Post-emergent herbicidal tests with representative compounds of this invention were made using the following method.
(§4) An acetone solution of the test compound was prepared by mixing 750 mg of the compound, 220 mg of a nonionic surfactant and 25 ml of acetone. This solution was added to approximately 125 ml of water containing 156 mg of surfactant.
(§5) This test solution was uniformly sprayed on 2 similar pots of 24-day-old plants (approximately 15 to 25 plants per pot) at a dose of 33 mcg/cm^2. After the plants had dried, they were placed in a greenhouse and then watered intermittently at their bases, as needed. The plants were observed periodically for phytotoxic effects and physiological and morphological responses to the treatment. After 3 weeks, the herbicidal effectiveness of the compound was rated based on these observations. A 0-to-100 scale was used, 0 representing no phytotoxicity and 100 representing complete kill.

[10] = test system: Watergrass (Echinochloa Crusgalli); assay: Post-emergent herbicidal test; type: in vivo; conditions: Echinochloa crus-galli, post-emergence, 504 h, 33 mcg/cm^2, 3 weeks, scale 0 (no phytotoxicity) to 100 (complete kill), read-out: Herbicidal Effectiveness (W)
Description: as §3, §4, §5

[11] = test system: Lambsquarter (Chenopodium album); assay: Post-emergent herbicidal test; type: in vivo; conditions: post-emergence, 504 h, 33 mcg/cm^2, 3 weeks, scale 0 (no phytotoxicity) to 100 (complete kill), read-out: Herbicidal Effectiveness (P)
Description: as §3, §4, §5

[12] = test system: Mustard (Brassica arvensis); assay: Post-emergent herbicidal test; type: in vivo; conditions: post-emergence, 504 h, 33 mcg/cm^2, 3 weeks, scale 0 (no phytotoxicity) to 100 (complete kill), read-out: Herbicidal Effectiveness (L)
Description: as §3, §4, §5

[13] = test system: Crabgrass (Digitaria sanguinalis); assay: Post-emergent herbicidal test; type: in vivo; conditions: post-emergence, 504 h, 33 mcg/cm^2, 3 weeks, scale 0 (no phytotoxicity) to 100 (complete kill), read-out: Herbicidal Effectiveness (C)
Description: as §3, §4, §5

[14] = test system: Wild Oats (Avena fatua); assay: Post-emergent herbicidal test; type: in vivo; conditions: post-emergence, 504 h, 33 mcg/cm^2, 3 weeks, scale 0 (no phytotoxicity) to 100 (complete kill), read-out: Herbicidal Effectiveness (O)
Description: as §3, §4, §5

[15] = test system: Erysiphe polygoni; assay: Powdery Mildew control on bean seedlings; type: in vivo; conditions: 250-ppm spray, about 10 days
Source text: The powdery mildew test was made using bean seedlings (var. Bountiful) with well-developed primary leaves. The pathogen was Erysiphe polygoni. The bean seedlings were sprayed with a 250-ppm solution of the test compound in an acetone-water mixture containing a nonionic emulsifer. The treated plants were inoculated one day after spray application of the test compound with the pathogen. […] The rate of infection on the leaves was made after about 10 days. The percent disease control provided by a given test compound was based on the disease reduction relative to untreated check plants.

[16] = test system: Septoria apii; type: in vivo; conditions: sprayed celery plants; concentration not given
[17] = test system: Botrytis cinerea; assay: Botrytis cinerea control on detached horsebean leaves; type: in vivo; conditions: 40-ppm solution, dipped horsebean leaves, 3 to 5 days, 23.5° C
Description: The leaves were dipped into a 40-ppm solution of the test compound in acetone and water containing a small amount of a nonionic emulsifier, then taken out and placed in a petri plate lined with two pieces of filter paper. The leaves were allowed to dry while the filter paper was kept moist by adding water as required. The treated leaves were then inoculated with the spores of Botrytis cinerea fungus grown on potato dextrose agar. The plate was covered after inoculation and kept at 23.5° C. The filter-paper lining of the plate was kept saturated with water throughout the test. The rate of disease incidence was determined in 3 to 5 days, when the disease symptoms were fully evident on non-treated check leaves. The percentage disease control provided by the test compound was calculated as the percentage disease reduction based on the non-treated check leaves.

| Structure (SMILES) | Tomato Early Blight, % Control [1] [%] | Mycelia Inhibition, for 99% control (B) [2] [micrograms/cm^2] | Mycelia Inhibition, for 99% control (A) [3] [micrograms/cm^2] | Mycelia Inhibition, for 99% control (R) [4] [micrograms/cm^2] | Mycelia Inhibition, for 99% control (F) [5] [micrograms/cm^2] | Mite Eggs Control, % [6] [%] | Mite Control, % [7] [%] | pest or weed control at 250 µg/mL [8] [%] | pest or weed control at 33 µg/cm2 [9] [%] | pest or weed control at 33 µg/cm2 [10] [%] | pest or weed control at 33 µg/cm2 [11] [%] | pest or weed control at 33 µg/cm2 [12] [%] | pest or weed control at 33 µg/cm2 [13] [%] | pest or weed control at 33 µg/cm2 [14] [%] | Powdery Mildew % Control [15] [%] | Celery Late Blight, % Control [16] [%] | percentage disease control (Botrytis cinerea) [17] [%] |
| --- | --- | --- | --- | --- | --- | --- | --- | --- | --- | --- | --- | --- | --- | --- | --- | --- | --- |
| Cc1ccc(N=c2ssnc2Cl)c(C)c1 [Compound 13] | 44 | > 1.7 | 1.1 | > 1.7 | > 1.7 | 30 | 0 | 63 | 35 | 0 | 35 | 50 | 0 | 0 | – | – | – |
| Cc1c(Cl)cccc1N=c1ssnc1Cl [Compound 21] | 44 | 1.3 | > 1.7 | 1.1 | > 1.7 | 99 | 90 | 63 | 50 | 15 | 20 | 45 | 0 | 0 | 100 | – | – |
| Cc1ccc(Cl)cc1N=c1ssnc1Cl [Compound 28] | – | – | – | – | – | 85 | 85 | – | 100 | 65 | 95 | 100 | 20 | 45 | 90 | – | – |
| Fc1ccccc1N=c1ssnc1Cl [Compound 22] | 50 | – | 1.4 | 0.73 | 1.3 | 39 | 0 | – | 70 | 20 | 70 | 85 | 0 | 0 | – | 80 | – |
| Cc1cc(Cl)ccc1N=c1ssnc1Cl [Compound 4, 4-chloro-5-(2-methyl-4-chlorophenylimino)-1,2,3-dithiazole] | – | – | > 1.7 | 0.63 | > 1.7 | 100 | 94 | – | 70 | 30 | 85 | 70 | 20 | 20 | 100 | – | 92 |
| Clc1ccc(N=c2ssnc2Cl)c(Cl)c1 [Compound 6] | 56 | – | – | – | – | 0 | 100 | – | 100 | 55 | 95 | 100 | 35 | 30 | – | – | – |
| O=[N+]([O-])c1ccc(Oc2cccc(N=c3ssnc3Cl)c2)cc1 [Compound 18] | 44 | > 1.7 | > 1.7 | 0.45 | > 1.7 | – | – | – | – | – | – | – | – | – | – | 64 | – |
| N#Cc1ccc(N=c2ssnc2Cl)cc1 [Compound 23] | 90 | 0.78 | > 1.7 | 0.6 | 1.4 | – | – | 97 | – | – | – | – | – | – | – | 63 | – |
| Clc1cc(Cl)cc(N=c2ssnc2Cl)c1 [Compound 3] | – | – | > 1.7 | 0.98 | > 1.7 | 85 | 90 | – | 100 | 85 | 100 | 100 | 55 | 35 | 76 | – | – |
